From patent US20240350402A1, “TOPICAL DRUG TREATMENT TO PREVENT OR REDUCE CORNEAL SCARRING” (The Cleveland Clinic Foundation, priority 2021, published 2024)

Columns and labels:
[1] = system: α-smooth muscle actin (SMA) myofibroblast marker; assay: DMR model: IHC for SMA and keratocan, area of SMA-positive posterior fibrosis (QuPath); type: in vivo, rabbit
Experimental: The rabbits had general anaesthesia with 30 mg/kg ketamine hydrochloride and 5 mg/kg xylazine by IM injection. In addition, topical proparacaine hydrochloride 1% (Alcon, Ft Worth, TX, USA) was applied to each eye prior to the surgery. One cornea selected at random in each group either had sham surgery without Descemetorhexis or an 8 mm diameter central Descemet's membrane-endothelial excision. The time point of one month after surgery was selected for the study because myofibroblasts and fibrosis in the posterior cornea was maximal at this time point in a prior time course Descemetorhexis study (Sampaio et al., 2021). Descemetorhexis was performed as described in the prior study (Sampaio et al., 2021). Briefly, a wire lid speculum was placed into one eye of each rabbit and an 8 mm diameter gentian violet circle was marked on the epithelial surface for reference. A limbal entry incision was created with a 1.6 mm blade (Bausch and Lomb, Rochester, NY, USA) and 0.3 ml Healon OVD (Abbott Medical Optics Inc. Santa Ana, CA, USA) was injected into the anterior chamber. A reversed Sinskey hook (Katena, Denville, New Jersey, USA) was placed into the anterior chamber and an 8 mm diameter disc of Descemet's membrane and endothelium was excised underlying the 8 mm area previously marked on the anterior corneal surface, without a subsequent endothelial corneal transplant. No removal of Descemet's membrane or endothelium was performed in unwounded sham surgery eyes. Remaining Healon OVD was removed with a Simcoe irrigation and aspiration cannula (Bausch & Lomb, Storz, Rochester, NY, USA) and the anterior chamber was filled with balanced salt solution (BSS). A single 10-0 nylon suture was placed at the incision site to prevent leakage from the anterior chamber. One drop of ciprofloxacin (Alcon, Ft. Worth, TX, USA) was applied to the corneas immediately after surgery and four times a day until the epithelium entry wound healed at approximately 2 days.
The oral solution was prepared with 5 ml distilled water+50 ml ora-plus (suspending vehicle—Perrigo, Dublin, Ireland)+45 ml Ora-sweet (flavored syrup vehicle—Perrigo).
At one month after surgery and treatment, an intravenous injection of 100 mg/kg Beuthanasia (Shering-Plough, Kenilworth, NJ) was given for euthanasia with the animals under general anaesthesia. Sharp Westcott scissors (Fairfield, CT, USA) and 0.12 forceps (Storz, St. Louis, MO) were used to remove the corneo-scleral rims of the sham unwounded and DMR eyes without touching the cornea. Each cornea was set in the center of a 24×24×5 mm mold (Fisher Scientific, Pittsburgh, PA, USA) and the mold was filled in liquid OCT compound (Sakura Finetek, Torrance, CA, USA). The molds and cornea-scleral rims were quick frozen on dry ice and stored at −80° C. until sections were cut.
Each OCT block was bisected in the exact center of the cornea, and 8 μm thick transverse sections were cut from the central cornea within the previous DMR injury or unwounded sham surgery corneas with a cryostat (HM 505M; Micron GmbH, Walldorf, Germany) and three sections per slide were placed on 25 mm×75 mm×1 mm Superfrost Plus microscope slides (Fisher Scientific, Pittsburgh, PA, USA). Slides were maintained at −20° C. until immunohistochemistry.
Duplex immunohistochemistry (IHC) was performed after masking of slides by a researcher not involved in the analysis using previously described methods (de Oliveira et al., 2021) using primary antibodies (Table 2) confirmed by western blotting and IHC to recognize rabbit antigens or isotypic control antibodies (ThermoFisher Scientific, Waltham, MA), and secondary fluorescent tagged antibodies (Table 3).
The area of the SMA-positive posterior fibrotic stroma was quantitated with the original groups masked to the analyzer by standardized photography with a 10× objective on a Leica DM6B upright microscope equipped with an automated stage and Leica 7000 T camera using the LAS X software (Leica Microsystems, GmbH, Wetzlar, Germany). […]

[2] = system: rabbit corneas after alkali burn injury; assay: Alkali burn model: slit lamp opacity area and intensity (ImageJ); type: in vivo; settings: alkali burn 1N NaOH; topical six times per day, one month; 0.8 mg/ml losartan, 1% prednisolone acetate
Experimental: All animal treatments and care were approved by the Institutional Animal Care and Use Committee (IACUC) at the Cleveland Clinic Foundation (Cleveland, OH, USA) and the Animal Care and Use Review Office of the Department of the Army (Fort Detrick, MD). All rabbits were treated in accordance with the tenets of the ARVO Statement for the Use of Animals in Ophthalmic and Vision Research. Sixteen 10- to 15-week-old female New Zealand White rabbits weighing 2.5 to 3.0 kg each were included in this example. […]
At one month after sodium hydroxide exposure and treatments, with the rabbits under ketamine-xylazine general anesthesia, the eyes were dilated with two drops of 1% tropicamide (Akom Co., Lake Forest, IL) for thirty minutes. […] For each study eye, the total area of opacity was determined by outlining the opacity with the freehand selection tool using ImageJ 1.53a analysis software calibrated to mm^2. The “raw internal density” in pixels for the opacified area in each cornea was also determined using ImageJ. […]

[3] = system: corneal neovascularization (CNV); assay: Alkali burn model: central corneal neovascularization (corneal angiography); type: in vivo, rabbit; settings: four corneas in each group, topical six times per day, one month
Experimental: Alkali injuries were produced in one eye of rabbits with previously published methods^10 using 1N sodium hydroxide (Sigma, St. Louis, MO) in balanced salt solution (BSS, 0.64% sodium chloride, 0.075% potassium chloride, 0.048% calcium chloride dihydrate, […] magnesium chloride hexahydrate, 0.39% sodium acetate trihydrate, 0.17% sodium citrate dihydrate, pH 7.5, Alcon, H. Worth, TX) and a 5 mm diameter circular Whatman No. 1 filter paper (Cat #1001-6508, Fisher Scientific) wetted with 100 μl of 1N NaOH solution. Following the alkali burn injury, the cornea was irrigated profusely with BSS. Each injured cornea also received one drop of ciprofloxacin (Alcon, Ft. Worth, TX, USA) ten minutes after surgery and four times a day for one week and at least 15 minutes apart from the study medications.
Worth TX), at least 5 minutes apart, or 4) 50 μl of BSS.
All corneas had fluorescent angiography at the peak of dye passage in the cornea immediately after injection of 1.5 ml of 10% sodium fluorescein (McKesson, Irvine, TX) in the central ear vein with the slit lamp system and digital camera system using a “barrier filter” that only transmitted 520-530 nm, the peak of fluorescein emission, with broad illumination of the cornea, as previously described.^11

CCCCc1nc(Cl)c(CO)n1Cc1ccc(-c2ccccc2-c2nn[nH]n2)cc1 [losartan]
mean area of the SMA-positive posterior fibrotic area among DMR groups ([1]; DMR, oral losartan alone, one month): highest
mean SMA-positive posterior fibrotic area compared to the other DMR groups ([1]; DMR, topical 0.4 mg/ml six times a day): significantly lower
SMA-positive fibrotic zone in the posterior cornea ([1]; DMR, topical 0.4 mg/ml six times per day, one month): marked decrease
SMA-positive fibrosis in the posterior cornea ([1]; DMR, topical six times per day and oral three times per day, one month): decrease
SMA-positive posterior corneal fibrosis in uninjured corneas ([1]; oral losartan three times a day): did not develop SMA-positive posterior corneal fibrosis
SMA-positive posterior corneal fibrosis in uninjured corneas ([1]; topical losartan six times a day): did not develop SMA-positive posterior corneal fibrosis
total opacity intensity in pixels (ImageJ) vs BSS vehicle group [2]: significantly different
corneas in which central corneal neovascularization developed [3]: two
